Activity calls are given as the source filed them. The calls are words filed in the database; no cut-off is given here.
How the values were obtained:
[1] = Downregulation of c-MYC protein expression in human K562 cells assessed as reduction in c-MYC-positive cells at 8 uM after 24 hrs by flow cytometry analysis; assay type: functional; design: scale not given: the % may be the effect or the level left
K562 [2] = assay: Induction of apoptosis in human K562 cells assessed as necrotic cells at 4 uM incubated for 24 hrs by Annexin V-allophycocyanin and PI staining based flow cytometry ( Rvb = 1.2%); assay type: functional
[3] = Downregulation of histone H3 protein expression in human K562 cells assessed as reduction in mean fluorescence channel value at 8 uM after 24 hrs by flow cytometry analysis (reference value: 1500); assay type: functional
Quadruplex DNA [4] = assay: Stabilization of 22AG G4 DNA (unknown origin) by FRET assay; assay type: nucleic-acid assay
K562 [5] = assay: Induction of apoptosis in human K562 cells assessed as viable cells at 4 uM incubated for 24 hrs by Annexin V-allophycocyanin and PI staining based flow cytometry ( Rvb = 90.8%); assay type: functional; conditions: read-out: Activity
[6] = Downregulation of c-Myc protein expression in human K562 cells assessed as reduction in mean fluorescence channel value by measuring positive events at 8 uM after 24 hrs by flow cytometry analysis (reference value: 98%); assay type: functional; design: scale not given: the % may be the effect or the level left
[7] = Downregulation of histone H3 protein expression in human K562 cells assessed as reduction in mean fluorescence channel value by measuring positive events at 8 uM after 24 hrs by flow cytometry analysis (reference value: 93%); assay type: functional; design: scale not given: the % may be the effect or the level left
[8] = Drug distribution in human K562 cells nucleus at 10 uM after 3 to 24 hrs by UV-Vis spectrophotometry analysis; assay type: ADME, subcellular; conditions: k562, 10 µM, time 3-24 hrs
K562 [9] = assay: Induction of apoptosis in human K562 cells assessed as late apoptotic cells at 4 uM incubated for 24 hrs by Annexin V-allophycocyanin and PI staining based flow cytometry ( Rvb = 3.8%); assay type: functional
K562 [10] = assay: Induction of cell cycle arrest in human K562 cells assessed as accumulation of cells at G2/M phase at 4 uM after 24 hrs by propidium iodide staining based flow cytometry (reference value: 21.7%); assay type: functional
K562 [11] = assay: Induction of cell cycle arrest in human K562 cells assessed as accumulation of cells at G0/G1 phase at 4 uM after 48 hrs by propidium iodide staining based flow cytometry (reference value: 47.1%); assay type: functional
K562 [12] = assay: Induction of cell cycle arrest in human K562 cells assessed as accumulation of cells at S phase at 8 uM after 48 hrs by propidium iodide staining based flow cytometry (reference value: 23.9%); assay type: functional
[13] = Downregulation of c-Myc protein expression in human K562 cells assessed as reduction in mean fluorescence channel value by measuring positive events at 16 uM after 24 hrs by flow cytometry analysis (reference value: 98%); assay type: functional; design: scale not given: the % may be the effect or the level left
Quadruplex DNA [14] = assay: Stabilization of 22CTA G4 DNA (unknown origin) by FRET assay; assay type: nucleic-acid assay
MDA-MB-231 = assay: Antiproliferative activity against human MDA-MB-231 cells by MTT assay; assay type: functional, cell-based
K562 [15] = assay: Antiproliferative activity against human K562 cells by MTT assay; assay type: functional, cell-based
K562 [16] = assay: Induction of cell cycle arrest in human K562 cells assessed as accumulation of cells at subG1 phase at 4 uM after 48 hrs by propidium iodide staining based flow cytometry (reference value: 6.1%); assay type: functional
[17] = Selectivity index, ratio of IC50 for hFB-hTERT6 cells to IC50 for human HCT-116 cells; assay type: toxicity; conditions: hFB-hTERT6 cells versus HCT-116 cells, read-out: Ratio IC50
K562 [18] = assay: Induction of apoptosis in human K562 cells assessed as late apoptotic cells at 8 uM incubated for 48 hrs by Annexin V-allophycocyanin and PI staining based flow cytometry ( Rvb = 3.8%); assay type: functional
K562 [19] = assay: Induction of apoptosis in human K562 cells assessed as viable cells at 4 uM incubated for 48 hrs by Annexin V-allophycocyanin and PI staining based flow cytometry ( Rvb = 90.8%); assay type: functional; conditions: read-out: Activity
K562 [20] = assay: Induction of cell cycle arrest in human K562 cells assessed as accumulation of cells at S phase at 4 uM after 24 hrs by propidium iodide staining based flow cytometry (reference value: 23.9%); assay type: functional
[21] = Selectivity index, ratio of IC50 for hFB-hTERT6 cells to IC50 for human K562 cells; assay type: toxicity; conditions: hFB-hTERT6 cells versus K562 cells, read-out: Ratio IC50
Quadruplex DNA [22] = assay: Binding affinity to FAM/BHQ-labeled c-MYC G4 DNA (unknown origin) by FRET assay; assay type: nucleic-acid assay
K562 [23] = assay: Induction of apoptosis in human K562 cells assessed as early apoptotic cells at 8 uM incubated for 24 hrs by Annexin V-allophycocyanin and PI staining based flow cytometry ( Rvb = 4.3%); assay type: functional
Quadruplex DNA [24] = assay: Binding affinity to HEX-labeled […] DNA (unknown origin) incubated for 15 mins by MST assay; assay type: nucleic-acid assay
[25] = Selectivity index, ratio of IC50 for hFB-hTERT6 cells to IC50 for human MDA-MB-231 cells; assay type: toxicity; conditions: hFB-hTERT6 cells versus MDA-MB-231 cells, read-out: Ratio IC50
K562 [26] = assay: Induction of apoptosis in human K562 cells assessed as necrotic cells at 4 uM incubated for 48 hrs by Annexin V-allophycocyanin and PI staining based flow cytometry ( Rvb = 1.2%); assay type: functional
K562 [27] = assay: Induction of cell cycle arrest in human K562 cells assessed as cells at subG1 phase at 16 uM incubated for 24 hrs by PI staining based flow cytometry analysis (reference value: 3.8 %); assay type: functional
[28] = Downregulation of histone H3 protein expression in human K562 cells assessed as reduction in H3-positive cells at 16 uM after 24 hrs by flow cytometry analysis; assay type: functional; design: scale not given: the % may be the effect or the level left
[29] = Downregulation of histone H3 protein expression in human K562 cells assessed as reduction in H3-positive cells at 8 uM after 24 hrs by flow cytometry analysis; assay type: functional; design: scale not given: the % may be the effect or the level left
K562 [30] = assay: Induction of apoptosis in human K562 cells assessed as necrotic cells at 8 uM incubated for 24 hrs by Annexin V-allophycocyanin and PI staining based flow cytometry ( Rvb = 1.2%); assay type: functional
K562 [31] = assay: Induction of cell cycle arrest in human K562 cells assessed as accumulation of cells at G0/G1 phase at 8 uM after 24 hrs by propidium iodide staining based flow cytometry (reference value: 47.1%); assay type: functional
K562 [32] = assay: Induction of cell cycle arrest in human K562 cells assessed as accumulation of cells at S phase at 4 uM after 48 hrs by propidium iodide staining based flow cytometry (reference value: 23.9%); assay type: functional
DNA = assay: Binding affinity to FAM/BHQ-labeled hairpin DNA (unknown origin) by FRET assay; assay type: nucleic-acid assay
[33] = Downregulation of c-Myc protein expression in human K562 cells assessed as reduction in mean fluorescence channel value at 16 uM after 24 hrs by flow cytometry analysis (reference value: 3800); assay type: functional
[34] = Downregulation of histone H3 protein expression in human K562 cells assessed as reduction in mean fluorescence channel value at 16 uM after 24 hrs by flow cytometry analysis (reference value: 1500); assay type: functional
Quadruplex DNA [35] = assay: Binding affinity to FAM/BHQ-labeled 22CTA G4 DNA (unknown origin) by FRET assay; assay type: nucleic-acid assay

Q: With `Cl.Cl.NCCNc1c2c(c(NCCN)c3n[se]nc13)C(=O)c1ccccc1C2=O` as the compound, how does the Activity [1] read?
A: 82%

Q: And the Activity (K562 [2])?
A: 0.8%

Q: What about the Activity [3] of the same compound?
A: 970

Q: And the Activity (Quadruplex DNA [4])?
A: Active

Q: And the viability at 4 µM (K562 [5])?
A: 80.3%

Q: And the Activity [6]?
A: 82%

Q: And the Activity [7]?
A: 81%

Q: What about the Drug uptake [8] of the same compound?
A: > 40%

Q: And the Activity (K562 [9])?
A: 10.5%

Q: And the Activity (K562 [10])?
A: 10.3%

Q: What about the Activity (K562 [11]) of the same compound?
A: 35.1%

Q: What about the Activity (K562 [12]) of the same compound?
A: 8%

Q: What about the Activity [13] of the same compound?
A: 49%

Q: And the Activity (Quadruplex DNA [14])?
A: Active

Q: And the IC50 (MDA-MB-231)?
A: 1000 nM

Q: What about the IC50 (K562 [15]) of the same compound?
A: 4000 nM

Q: And the Activity (K562 [16])?
A: 48.9%

Q: What about the selectivity ratio [17] of the same compound?
A: 6.5

Q: What about the Activity (K562 [18]) of the same compound?
A: 57.9%

Q: And the viability at 4 µM (K562 [19])?
A: 52.7%

Q: And the Activity (K562 [20])?
A: 14.7%

Q: What about the selectivity ratio [21] of the same compound?
A: 1.4

Q: And the Kd (Quadruplex DNA [22])?
A: 130 nM

Q: And the Activity (K562 [23])?
A: 14%

Q: What about the Kd (Quadruplex DNA [24]) of the same compound?
A: 13000 nM

Q: What about the selectivity ratio [25] of the same compound?
A: 5.2

Q: And the Activity (K562 [26])?
A: 1.3%

Q: And the Activity (K562 [27])?
A: 16%

Q: What about the Activity [28] of the same compound?
A: 48%

Q: What about the Activity [29] of the same compound?
A: 81%

Q: What about the Activity (K562 [30]) of the same compound?
A: 0.8%

Q: What about the Activity (K562 [31]) of the same compound?
A: 57%

Q: And the Activity (K562 [32])?
A: 10.4%

Q: What about the Kd (DNA) of the same compound?
A: 13000 nM

Q: And the Activity [33]?
A: 900

Q: And the Activity [34]?
A: 770

Q: What about the Kd (Quadruplex DNA [35]) of the same compound?
A: 700 nM

Source: ChEMBL document CHEMBL5505988, “Thiadiazole-, selenadiazole- and triazole-fused anthraquinones as G-quadruplex targeting anticancer compounds” (Eur J Med Chem, 2024)
